Common to all, as to type: in vivo
In assay [1] the test system is corn rootworm. Put plainly: Mite/insect screen, CRW. The conditions noted are these: percent mortality, read-out: CRW RESULTS %; for mortality at 12 ppm: CRW rate 12.00 ppm; for mortality at 24 ppm: CRW rate 24.00 ppm. The gist of the method: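 Stock in acetone:alcohol 1:1 + TOXIMUL R 23 g/L + TOXIMUL S 13 g/L; diluted with water to indicated concentrations; mortality (%) after standard exposure.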

In assay [2] the test system is Botrytis cinerea (gray mold). Briefly: Test 1 greenhouse foliar spray screen, gray mold on grape berries. The following applies: Botrytis cinerea, foliar; Test 1, spray on grape berries; disease control rating at 400 ppm / 100 ppm.
The test system of assay [3] is Pyricularia oryzae (rice blast). Briefly: whole plant or invertebrate. The following applies: Pyricularia oryzae, foliar, read-out: RICE BLAST, Test 1, foliar spray on rice; disease control rating at 400 ppm / 100 ppm.
Assay [4] has as its system southern armyworm (Spodopetra eridania Cramer). Briefly: Mite/insect screen, SAW. The following applies: Spodoptera eridania, foliar, percent mortality, foliar spray on squash, read-out: SAW RESULTS %; for mortality at 200 ppm: rate 200 ppm; for mortality at 400 ppm: rate 400 ppm. The method, boiled down:
(§1)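 First, each compound was dissolved in an emulsifier-containing acetone/alcohol mixture and diluted with water. Next, leaves were sprayed until runoff and left to dry for an hour. For southern armyworm, two excised uninfested leaves went into a Petri dish with larvae; percent mortality followed standard exposure periods.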

The test system of assay [5] is melon aphids (Aphis gossypii Glover). Briefly: Mite/insect screen, MA. The conditions noted are these: Aphis gossypii, foliar, percent mortality, foliar spray on squash, read-out: MA RESULTS %; for mortality at 200 ppm: rate 200 ppm; for mortality at 400 ppm: rate 400 ppm. The gist of the method: as §1
The test system of assay [6] is Pseudoperonospora cubensis (downy mildew). Briefly: Test 1 greenhouse foliar spray screen, downy mildew on squash. The following applies: Pseudoperonospora cubensis, foliar, Test 1, foliar spray on squash; disease control rating at 400 ppm / 100 ppm; read-out: DOWN MDEW.
Assay [7] has as its system Puccinia recondita tritici (leaf rust). Briefly: Test 1 greenhouse foliar spray screen, leaf rust on wheat. The following applies: Puccinia recondita, foliar, Test 1, foliar spray on wheat; disease control rating at 400 ppm / 100 ppm.
Assay [8] has as its system Twospotted spider mites (Tetranychus urticae Koch). Put plainly: Mite/insect screen, SM. The conditions noted are these: Tetranychus urticae, foliar, percent mortality, foliar spray on squash, read-out: SM RESULTS %; for mortality at 200 ppm: rate 200 ppm; for mortality at 400 ppm: rate 400 ppm. The gist of the method: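 Read-out: percent mortality after standard exposure periods. Test solutions were water dilutions of compound dissolved in acetone/alcohol (50:50) with emulsifier blends; leaves were sprayed to runoff on both surfaces and air-dried for one hour before exposure.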

Assay [9] has as its system Erysiphe graminis tritici (powdery mildew). Put plainly: Test 1 greenhouse foliar spray screen, powdery mildew on wheat. The following applies: Blumeria graminis, foliar, Test 1, foliar spray on wheat; disease control rating at 400 ppm / 100 ppm; read-out: POWD MDEW.

Structures are written as SMILES.

Among the data in patent EP0326331B1, “Substituted quinolines and cinnolines” (Dow AgroSciences LLC, priority 1988, dated 1989) are mortality and pest or weed control values, retold here.

With `Fc1cccc2c(OCCCC(Br)CBr)ccnc12` (centres unmarked) [Example 284, 4-[(4,5-dibromopentyl)oxy]-8-fluoroquinoline], the mortality at 12 ppm in [1] is 0%. Also, the mortality at 24 ppm in assay [1] stood at 0%. In addition, the pest or weed control at 400 ppm in [2] fell in the range of 0 to 19%; in assay [3], 90 to 100%; in assay [6], 20 to 89%; in assay [7], 90 to 100%; in assay [9], 0 to 19%. Besides, the mortality at 200 ppm in assay [4], in [5] and in assay [8] was 0% each time. Moreover, the mortality at 400 ppm in assay [4], in [5] and in assay [8] was 0% throughout.

Regarding `Fc1cccc2c(OCCCCCCCCOc3ccccc3)ccnc12` [Example 285, 8-fluoro-4-[(8-phenoxyoctyl)oxy]quinoline], the mortality at 12 ppm in assay [1] stood at 0%. In addition, in [1], the mortality at 24 ppm worked out at 0%. In addition, the pest or weed control at 400 ppm in assay [2], in [3], in assay [6], in assay [7] and in [9] was 0 to 19% throughout. Besides, the mortality at 200 ppm in [4] came out at 0%; in assay [5], 80%; in assay [8], 40%. Moreover, the mortality at 400 ppm in assay [4], in [5] and in assay [8] was 0% throughout.

In the case of `Cc1cc(OCCc2ccc(C(C)(C)C)cc2)c2cc(Cl)ccc2n1` [Example 286, 6-chloro-2-methyl-4-[2-[4-(t-butyl)phenyl]ethoxy]quinoline], the mortality at 12 ppm in [1] came out at 0%. Further, the mortality at 24 ppm in assay [1] amounted to 0%. Further, the pest or weed control at 400 ppm was 0 to 19% in [2]; 0 to 19% in assay [3]; 0 to 19% in assay [6]; 20 to 89% in assay [7]; 20 to 89% in [9]. The mortality at 200 ppm in assay [4], in assay [5] and in assay [8] was 0% throughout. The mortality at 400 ppm in assay [4], in assay [5] and in [8] was 0% each time.

For the compound `Fc1cccc2c(OCCCCCCOc3ccccc3)ccnc12` [Example 287, 8-fluoro-4-[(6-phenoxyhexyl)oxy]quinoline], in assay [1], the mortality at 12 ppm amounted to 0%. Besides, in [1], the mortality at 24 ppm worked out at 0%. In addition, the pest or weed control at 400 ppm lay within 0 to 19% in assay [2]; 0 to 19% in [3]; 90 to 100% in [6]; 20 to 89% in assay [7]; 0 to 19% in [9]. In addition, the mortality at 200 ppm in assay [4] amounted to 0%; in assay [5], 80%; in assay [8], 0%. Besides, the mortality at 400 ppm in assay [4], in assay [5] and in assay [8] was 0% in each case.

`CC(C)(CNc1ccnc2c(Cl)cccc12)c1ccccc1` [Example 288, 8-chloro-N-(2-methyl-2-phenylpropyl)-4-quinolinamine]: in [1], the mortality at 12 ppm is 0%. Besides, the mortality at 24 ppm in assay [1] was 0%. Moreover, the pest or weed control at 400 ppm in assay [2] lay within 0 to 19%; in assay [3], 20 to 89%; in [6], 20 to 89%; in [7], 0 to 19%; in [9], 0 to 19%. Further, the mortality at 200 ppm in [4], in assay [5] and in assay [8] was 0% throughout. The mortality at 400 ppm in assay [4], in [5] and in assay [8] was 0% each time.

As to `CC(C)(CNc1ccnc2c(F)cccc12)c1ccccc1` [Example 289, 8-fluoro-N-(2-methyl-2-phenylpropyl)-4-quinolinamine], the mortality at 12 ppm in assay [1] amounted to 0%. Further, the mortality at 24 ppm in assay [1] is 0%. Besides, the pest or weed control at 400 ppm lay within 0 to 19% in assay [2]; 90 to 100% in assay [3]; 90 to 100% in [6]; 90 to 100% in [7]; 20 to 89% in assay [9]. For the same compound, the mortality at 200 ppm in [4], in assay [5] and in [8] was 0% each time. Moreover, the mortality at 400 ppm in assay [4], in assay [5] and in assay [8] was 0% each time.

Turning to `COc1ccc2nc(C)cc(NCCc3cccc(Oc4ccccc4)c3)c2c1` [Example 290, 6-methoxy-2-methyl-N-[2-(3-phenoxyphenyl)ethyl]-4-quinolinamine], the mortality at 12 ppm in [1] was 0%. For the same compound, the mortality at 24 ppm in assay [1] was determined as 0%. Further, the pest or weed control at 400 ppm in assay [2] is 0 to 19%; in assay [3] it was 90 to 100%; in [6], 90 to 100%; in assay [7], 20 to 89%; in assay [9] it was 0 to 19%. Besides, the mortality at 200 ppm in assay [4] amounted to 0%; in [5], 80%; in assay [8], 80%. Besides, the mortality at 400 ppm in assay [4], in assay [5] and in assay [8] was 0% throughout.

With `Fc1cccc2c(NCCc3ccc(OCc4ccccc4)cc3)ccnc12` [Example 291, 8-fluoro-N-[2-[4-(phenylmethoxy)phenyl]ethyl]-4-quinolinamine], the mortality at 12 ppm in [1] was 0%. For the same compound, the mortality at 24 ppm in [1] turned out to be 0%. Further, the pest or weed control at 400 ppm was in the range of 0 to 19% in assay [2]; 90 to 100% in assay [3]; 90 to 100% in [6]; 90 to 100% in [7]; 90 to 100% in assay [9]. In addition, the mortality at 200 ppm worked out at 0% in assay [4], 100% in [5] and 0% in [8]. In addition, the mortality at 400 ppm in [4], in assay [5] and in assay [8] was 0% each time.

As to `Fc1ccc2c(OCCOc3ccc(Br)cc3)ccnc2c1` [Example 292, 7-fluoro-4-[2-(4-bromophenoxy)ethoxy]quinoline], in [1], the mortality at 12 ppm was determined as 0%. Besides, in assay [1], the mortality at 24 ppm stood at 0%. The pest or weed control at 400 ppm in assay [2], in assay [3], in assay [6], in assay [7] and in assay [9] was 0 to 19% each time. The mortality at 200 ppm in assay [4] was 0%; in [5], 30%; in assay [8], 0%. Further, the mortality at 400 ppm in assay [4], in assay [5] and in [8] was 0% throughout.

On to `Oc1ccc(CCNc2ccnc3c(F)cccc23)cc1` [Example 293, N-[2-(4-hydroxyphenyl)ethyl]-8-fluoro-4-quinoline], for which, in [1], the mortality at 12 ppm worked out at 0%. Besides, the mortality at 24 ppm in [1] came out at 0%. Moreover, the pest or weed control at 400 ppm in [2] is 0 to 19%; in assay [3], 0 to 19%; in [6], 0 to 19%; in assay [7] it was 90 to 100%; in assay [9] it was 0 to 19%. Also, the mortality at 200 ppm in assay [4], in assay [5] and in [8] was 0% each time. Further, the mortality at 400 ppm in [4], in assay [5] and in [8] was 0% in each case.

For the compound `Fc1cccc2c(OCCCc3cccc(C(F)(F)F)c3)ccnc12` [Example 294, 8-fluoro-4-[3-[3-(trifluoromethyl)phenyl]propoxy]quinoline], in [1], the mortality at 12 ppm was determined as 0%. Also, in assay [1], the mortality at 24 ppm turned out to be 0%. Further, the pest or weed control at 400 ppm in [2], in assay [3], in [6], in assay [7] and in [9] was 0 to 19% each time. The mortality at 200 ppm in assay [4], in assay [5] and in [8] was 0% throughout. Besides, the mortality at 400 ppm in assay [4], in assay [5] and in assay [8] was 0% in each case.
